According to patent US7173129B2, “Sulfonamide-substituted chalcone derivatives and their use to treat diseases” (Athero Genics, Inc., priority 2003, dated 2007):

Key:
VCAM-1 = assay: In Vitro VCAM-1 Assay (TNF-α stimulated endothelial cells, cell-surface ELISA); format: cell-based; settings: Homo sapiens, Endothelial cell, 16 h, primary human aortic (HAEC) or pulmonary (HPAEC) endothelial cells, TNF-α 1 ng/ml, approximately 16 hours, ELISA OD 450 nm
Protocol: Cell Culture and compound dosing: Cultured primary human aortic (HAEC) or pulmonary (HPAEC) endothelial cells were obtained from Clonetics, Inc., and were used below passage 9. Cells were seeded in 96 well plates such that they would reach 90–95% confluency by the following day. On the following day the cells were stimulated with TNF-α (1 ng/ml) in the presence or absence of compounds dissolved in DMSO such that the final concentration of DMSO is 0.25% or less. To establish a dose curve for each compound, four concentrations in 2- to 5-fold increments were used. Cells were exposed to TNF-α and compounds for approximately 16 hours. The next day the cells were examined under microscope to score for visual signs of toxicity or cell stress.
Following 16 hr exposure to TNF-α and compound the media was discarded and the cells were washed once with Hanks Balanced Salt Solution (HBSS)/Phosphate buffered saline (PBS) (1:1). Primary antibodies against VCAM-1 (0.25 μg/ml in HBSS/PBS+5% FBS) were added and incubated for 30–60 minutes at 37° C. Cells were washed with HBSS/PBS three times, and secondary antibody Horse Radish Peroxidase (HRP)-conjugated goat anti-mouse IgG (1:500 in HBSS/PBS+5% FBS) were added and incubated for 30 minutes at 37° C. Cells were washed with HBSS/PBS four time and TMB substrate were added and incubated at room temperature in the dark until there was adequate development of blue color. The length of time of incubation was typically 5–15 minutes. 2N sulfuric acid was added to stop the color development and the data was collected by reading the absorbance on a BioRad ELISA plate reader at OD 450 nm. The results are expressed as IC50 values (the concentration (micromolar) of compound required to inhibit 50% of the maximal response of the control sample stimulated by TNF-α only).

Row | SMILES | melting point [°C] | IC50 (VCAM-1) [µM]
1 | COc1cc(OC)c(N2CCCC2)cc1/C=C/C(=O)c1ccc(S(=O)(=O)NCCCN2CCN(C)CC2)cc1 [Example 55, 4-[3E-(2,4-Dimethoxy-5-pyrrolidin-1-ylphenyl)acryloyl]-N-[3-(4-methyl-piperazin-1-yl)propyl]benzenesulfonamide] | 64 to 68 | > 10
2 | COc1cc(OC)c(N2CCCC2)cc1/C=C/C(=O)c1ccc(S(=O)(=O)NCC(=O)O)cc1 [Example 56, {4-[3E-(2,4-Dimethoxy-5-pyrrolidin-1-ylphenyl)acryloyl]benzenesulfonylamino}acetic acid] | 155 to 158 | > 10
3 | COc1cc(OC)c(-c2cc3ccccc3[nH]2)cc1/C=C/C(=O)c1ccc(S(=O)(=O)Nc2ccccn2)cc1 [Example 57, 4-{3E-[5-(1H-Indol-2-yl)-2,4-dimethoxyphenyl]acryloyl}-N-pyridin-2-ylbenzenesulfonamide] | 206 to 208 | < 5
